From US8946260B2, “17α-hydroxylase/C17,20-lyase inhibitors” (Novartis AG, priority 2010, dated 2015) come the findings set out here.

Where a name gives a salt, the structure may show the parent alone.

One experiment concerns the target T1, recombinant Human CYP17 enzyme (17-20 lyase) (Homo sapiens, UniProt P05093).
T1 construct: made in house; host or cells: A549 cells, adenoviral expression system; purified cell membrane preparations
T1 sequence (P05093 1-508): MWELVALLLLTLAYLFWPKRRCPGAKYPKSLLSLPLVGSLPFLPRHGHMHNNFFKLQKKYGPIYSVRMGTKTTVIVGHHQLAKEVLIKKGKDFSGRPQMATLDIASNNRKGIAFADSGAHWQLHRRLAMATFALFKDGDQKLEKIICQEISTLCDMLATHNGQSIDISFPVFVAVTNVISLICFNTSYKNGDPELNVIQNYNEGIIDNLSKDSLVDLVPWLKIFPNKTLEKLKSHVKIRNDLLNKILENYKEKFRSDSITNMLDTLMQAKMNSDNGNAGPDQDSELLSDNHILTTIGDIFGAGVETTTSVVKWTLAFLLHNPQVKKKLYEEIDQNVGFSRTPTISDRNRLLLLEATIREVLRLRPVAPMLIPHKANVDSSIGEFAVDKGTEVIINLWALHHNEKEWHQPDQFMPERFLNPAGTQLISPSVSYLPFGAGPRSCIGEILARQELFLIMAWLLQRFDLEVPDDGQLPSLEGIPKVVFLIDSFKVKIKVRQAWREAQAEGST
Nature of the experiment: Cytochrome P450, 17-20 lyase (CYP17-lyase) assay, 17-α-hydroxy pregnenolone [21-3H] as substrate.
Settings: not given
It is filed as biochemical. The source says:
1) Cytochrome P450, 17-20 Lyase (CYP17-Lyase) Assay Development Using Recombinant Human CYP17 Enzyme and 17-α-Hydroxy Pregnenolone [21-3H] as the Substrate.
Cytochrome P450, 17-α-Hydroxylase, 17-20 lyase (CYP17) is a multi functional enzyme that plays a key role in the biosynthesis of steroid hormones. It catalyses both conventional hydroxylation and also the carbon-carbon bond cleavage reactions (Peter Lee-Robichaud et al, Biochem. J, (1997) 321, 857-63). In the hydroxylation reaction, it converts progesterone and pregnenolone to the corresponding hydroxylated products 17-α-hydroxy progesterone and 17-α-hydroxy pregnenolone. In the lyase reaction, it catalyzes the conversion of these hydroxylated substrates to Androstenedione and Dehydroepiandrosterone (DHEA) respectively. In the Cyp17 lyase assay described here, the conversion of 17-α-hydroxy pregnenolone to Dehydroepiandrosterone and acetic acid is being monitored.
Assay method was adopted from a published protocol with some modifications to suit our requirements (Dmitry N Grigoryev et al, Analytical Biochemistry, (1999) 267, 319-330). The conversion of 17-α-hydroxy pregnenolone to Dehydroepiandrosterone is accompanied by the release of acetic acid. In the Cyp17 lyase assay, 17-α-hydroxy pregnenolone labeled with tritium (3H) at position 21 is used as the substrate. Chloroform extraction removes the radioactive steroids and acetic acid is taken into aqueous layer. The tritiated acetic acid released in the assay thus extracted is quantified to determine the enzyme activity.
Initial buffer conditions were, 50 mM Phosphate buffer, pH 7.5 was used as the starting buffer for Cyp17 lyase activity based on the data published in US patent publication No. US2004/0198773 A1. […] Human Cyp 17 gene was cloned and expressed in Adenoviral expression system in A549 cell lines. The purified cell membrane preparations were used as the source for Human CYP17 enzyme. Total protein concentration: 8 mg/mL.
For routine screening, the assay was set up with 16 μg of enzyme in 50 μL reaction volume. 17α-hydroxy pregnenolone [21-3H] was added to a final concentration of 0.25 μM. NADPH is used at a final concentration of 4.2 mM. Total reaction volume was made up to 50 μL with 50 mM Phosphate buffer pH 7.5. The reaction mixture was incubated at room temperature for 90 minutes with gentle shaking. The reaction was stopped by the addition of 100 μL of buffer. 500 μL of 5% freshly prepared activated charcoal was added to the solution and mixed well by vortexing. The samples were centrifuged at 17568×g for 5 minutes. (14000 rpm). The supernatant was carefully transferred to fresh tube and 1.3 mL of scintillation fluid was added, mixed by vortexing.
The radioactivity was measured in a 1450 MicroBeta TriLux™ scintillation counter from Wallac-Perkin Elmer®, USA. The measurements were carried out in 2.0 mL Eppendorf™ tubes. Each tube was counted for 1 minute. The amount of tritiated acetic acid released is proportional to the lyase activity. Percent lyase activity in presence of inhibitor was calculated using the formula given below.
[formula] • Sample: Enzyme reaction in presence of inhibitor. • Positive control: Enzyme reaction without inhibitor but containing DMSO at 1% final concentration. • Blank—Contains all reagents except enzyme. • % Inhibition=100%−% Lyase activity
For IC50 determination, the % inhibition was plotted as a function of inhibitor concentration. The data was fitted to sigmoidal equation using Graphpad Prism® software IV to generate IC50 values.
Consider `CCn1c2c(c3cc(F)ccc31)C(=O)N(c1cnccc1C)CC2` [Example 59A, 5-ethyl-8-fluoro-2-(4-methylpyridin-3-yl)-2,3,4,5-tetrahydro-1H-pyrido[4,3-b]indol-1-one], for which the IC50 stood at 29 nM.

Still in this experiment, the particulars now being: at 10 μM; read-out: hCYP17 Lyase % Inh.
`Cc1ccncc1N1CCc2ccc(Oc3ncc(F)cn3)cc2C1=O` [Example 37A, 7-(5-fluoropyrimidin-2-yloxy)-2-(4-methylpyridin-3-yl)-3,4-dihydroisoquinolin-1(2H)-one]: the inhibition at 10 µM is 63%.

As for `Cc1ccncc1N1CCc2ccc(F)c(NCC3CC3)c2C1=O` [Example 39A, 8-(cyclopropylmethylamino)-7-fluoro-2-(4-methylpyridin-3-yl)-3,4-dihydroisoquinolin-1(2H)-one, acetate salt], the inhibition at 10 µM was 76%.

For `COc1cc2c(cc1OC)C(=O)N(c1cnccc1C)CC2` [Example 40A, 6,7-Dimethoxy-2-(4-methyl-pyridin-3-yl)-3,4-dihydro-2H-isoquinolin-1-one], the inhibition at 10 µM was 12%.

For the molecule `Cc1ccncc1N1CCc2cc(Cl)c(Cl)cc2C1=O` [Example 41A, 6,7-dichloro-2-(4-methylpyridin-3-yl)-3,4-dihydroisoquinolin-1 (2H)-one], the inhibition at 10 µM came out at 10%.

`COc1ccc(F)c2c1C(=O)N(c1cnccc1C)CC2` [Example 44A, 5-fluoro-8-methoxy-2-(4-methylpyridin-3-yl) 3,4-dihydroisoquinolin-1(2H)-one]: the inhibition at 10 µM is 8%.

The experiment is the same for the next values; noted with them: human CYP17 lyase; substrate 0.25 μM; room temperature, 90 minutes; read-out: Lyase IC 50 nM Human.
With `Cc1ccncc1N1CCc2ccc(OCC3CC3)cc2C1=O` [Example 31A, 7-(cyclopropylmethoxy)-2-(4-methylpyridin-3-yl)-3,4-dihydroisoquinolin-1 (2H)-one], the IC50 worked out at 727 nM.

On to `Cc1ccncc1N1CCc2ccc(C#N)cc2C1=O` [Example 32A, 2-(4-methylpyridin-3-yl)-1-oxo-1,2,3,4-tetrahydroisoquinoline-7-carbonitrile], for which the IC50 was 301 nM.

Take `Cc1ccncc1N1CCc2ccc(Cl)c(F)c2C1=O` [Example 33A, 7-chloro-8-fluoro-2-(4-methylpyridin-3-yl)-3,4-dihydroisoquinolin-1(2H)-one]: the IC50 amounted to 13 nM.

Regarding `Cc1ccncc1N1CCc2ccc(F)c(Cl)c2C1=O` [Example 34A, 8-chloro-7-fluoro-2-(4-methylpyridin-3-yl)-3,4-dihydroisoquinolin-1(2H)-one], the IC50 is 149 nM.

For `O=c1c2cc(C(F)(F)F)ccc2ccn1-c1cccnc1` [Example 36A, 2-(pyridin-3-yl)-7-(trifluoromethyl)isoquinolin-1(2H)-one], the IC50 worked out at 54 nM.

Regarding `CCn1c2c(c3ccccc31)CCN(c1cnccc1C)C2=O` [Example 38A, 9-ethyl-2-(4-methylpyridin-3-yl)-2,3,4,9-tetrahydro-1H-pyrido[3,4-b]indol-1-one], the IC50 was 23 nM.

In the case of `CCn1c2c(c3ccccc31)CC(C)N(c1cccnc1)C2=O` (centres unmarked) [Example 42A, 9-ethyl-3-methyl-2-(pyridin-3-yl)-2,3,4,9-tetrahydro-1H-pyrido[3,4-b]indol-1-one], the IC50 worked out at 55 nM.

With `CC1Cc2ccc(C(F)(F)F)cc2C(=O)N1c1cccnc1` (centres unmarked) [Example 43A, 3-Methyl-2-pyridin-3-yl-7-trifluoromethyl-3,4-dihydro-2H-isoquinolin-1-one], the IC50 is 15 nM.

Regarding `Cc1ccncc1N1CCc2c(sc3ccc(F)cc23)C1=O` [Example 45A, 6-Fluoro-2-(4-methyl-pyridin-3-yl)-3,4-dihydro-2H-benzo[4,5]thieno[2,3-c]pyridin-1-one], the IC50 turned out to be 211 nM.

On to `CCn1c2c(c3ccccc31)CC(C)N(c1cnccc1C)C2=O` (centres unmarked) [Example 46A, 9-Ethyl-3-methyl-2-(4-methyl-pyridin-3-yl)-2,3,4,9-tetrahydro-b-carbolin-1-one], for which the IC50 is 44 nM.

`Cc1ccncc1N1CCc2ccc(C(F)(F)F)c(F)c2C1=O` [Example 47A, 8-Fluoro-2-(4-methyl-pyridin-3-yl)-7-trifluoromethyl-3,4-dihydro-2H-isoquinolin-1-one]: the IC50 was determined as 12 nM.

Regarding `Cc1ccncc1N1C(=O)c2cc(C(F)(F)F)ccc2CC1C` (centres unmarked) [Example 48A, 3-Methyl-2-(4-methyl-pyridin-3-yl)-7-trifluoromethyl-3,4-dihydro-2H-isoquinolin-1-one], the IC50 is 16 nM.

As for `Cc1ccncc1N1CCc2cc(F)c(F)cc2C1=O` [Example 49A, 6,7-difluoro-2-(4-methylpyridin-3-yl)-3,4-dihydroisoquinolin-1(2H)-one], the IC50 stood at 159 nM.

With `Cc1ccncc1N1CCc2sc3ccc(F)cc3c2C1=O` [Example 50A, 8-Fluoro-2-(4-methylpyridin-3-yl)-3,4-dihydrobenzo[4,5]thieno[3,2-c]pyridin-1(2H)-one], the IC50 was found to be 6 nM.

Take `Cc1ccncc1N1CCc2ccc(OC(F)(F)F)cc2C1=O` [Example 51A, 2-(4-Methylpyridin-3-yl)-7-(trifluoromethoxy)-3,4-dihydroisoquinolin-1(2H)-one]: the IC50 amounted to 22 nM.

Consider `O=C1c2cc(C(F)(F)F)ccc2CCN1c1cnccc1CN1CCCC1` [Example 52A, 2-(4-(Pyrrolidin-1-ylmethyl)pyridin-3-yl)-7-(trifluoromethyl)-3,4-dihydroisoquinolin-1(2H)-one], for which the IC50 is 556 nM.

`O=C1c2cc(C(F)(F)F)ccc2CCN1c1cnccc1CNC1CC1` [Example 53A, 2-(4-((cyclopropylamino)methyl)pyridin-3-yl)-7-(trifluoromethyl)-3,4-dihydroisoquinolin-1(2H)-one]: the IC50 came to 50 nM.

For the molecule `Cn1cncc1N1CCc2ccc(C(F)(F)F)cc2C1=O` [Example 54A, 2-(1-methyl-1H-imidazol-5-yl)-7-(trifluoromethyl)-3,4-dihydroisoquinolin-1(2H)-one], the IC50 stood at 19 nM.

For `O=C1c2cc(Cl)c(Cl)cc2CCN1c1cnccc1C(F)(F)F` [Example 55A, 6,7-dichloro-2-(4-(trifluoromethyl)pyridin-3-yl)-3,4-dihydroisoquinolin-1(2H)-one], the IC50 worked out at 125 nM.

As for `O=C1c2ccc(C(F)(F)F)cc2CCN1c1cncc(F)c1` [Example 56A, 2-(5-fluoropyridin-3-yl)-6-(trifluoromethyl)-3,4-dihydroisoquinolin-(2H)-one], the IC50 was 1110 nM.

As for `O=C1c2c(sc3ccc(F)cc23)CCN1c1cnccc1C(F)(F)F` [Example 57A, 8-Fluoro-2-(4-trifluoromethylpyridine-3-yl)-3,4-dihydro-2H-benzo[4,5]thieno[3,2-c]pyridin-1-one], the IC50 is 548 nM.

For `O=C1c2c(sc3ccccc23)CCN1c1cnccc1C(F)(F)F` [Example 58A, 2-(4-trifluoromethylpyridine-3-yl)-3,4-dihydro-2H-benzo[4,5]thieno[3,2-c]pyridin-1-one], the IC50 is 218 nM.

In the case of `Cc1ccncc1N1CCc2[nH]c3ccc(F)cc3c2C1=O` [Example 60A, 8-fluoro-2-(4-methylpyridin-3-yl)-2,3,4,5-tetrahydro-1H-pyrido[4,3-b]indol-1-one], the IC50 turned out to be 9 nM.
